Where a name gives a salt, the structure may show the parent alone.
Legend:
[1] = tested on: MeWo-LM2 cells, MeWo brain metastatic derivative cells; experiment: Systemic and brain metastasis after intracardiac injection into athymic nude mice; type: in vivo, human; details: diet 100 mg/kg
Method: After 8 hours, the transfection media was replaced with fresh media. After 48 hours, 1×10^5 cells were injected intravenously into NOD-SCID mice to assess lung metastatic colonization or through intracardiac injection into athymic nude mice to assess systemic metastasis. For cell invasion and endothelial recruitment in vitro assays, the cells were used 96 hours post-transfection.
Melanoma cells used for in vivo metastasis assays were transduced with a stably expressed retroviral construct encoding a luciferase reporter gene (Ponomarev et al., 2004), allowing us to monitor the in vivo progression of melanoma cells by bioluminescence imaging. The following numbers of melanoma cells, resuspended in 100 μL, of PBS, were injected intravenously via the tail-vein: 4×10^4 MeWo cells, 2.5×10^5 HT-144 cells, 2×10^5 SK-Mel-334.2 cells, 5×10^4B16F10 cells, and 1×10^5 YUMM cells. The MeWo, HT-144, and SK-Mel-334.2 cells were injected into 6-8 week-old sex-matched NOD scid mice, while the B16F10 and YUMM cells were injected into 6-8 week-old sex-matched C57BL/6 mice. […] To assess the effect of GW3965 treatment on brain metastasis, 1×10^5 MeWo brain-metastatic derivatives were injected intracardially into athymic nude mice. Immediately following injection, mice were randomly assigned to a control diet or GW3965-supplemented diet (100 mg/kg). […]

[2] = tested on: MeWo, SK-Mel-2, SK-Mel-334.2, SK-Mel-239 human melanoma cells; experiment: Subcutaneous human melanoma tumor growth in immunocompromised mice; type: in vivo
From the text: (§1) All data are represented as mean±SEM.
as §1

[3] = tested on: LXR signaling in the brain; details: cited from earlier work
[4] = tested on: ApoE promoter fused to ME.1 or ME.2 in MeWo cells; experiment: ApoE promoter activity (luciferase) assay; type: cell-based, human; details: 1 μM, 24 hours
From the text: The ApoE promoter, consisting of a sequence spanning 980 base pairs upstream and 93 base pairs downstream of the ApoE gene, was cloned into a pGL3-Basic vector (E1751, Promega Corporation, Madison, Wis.) upstream of the firefly luciferase gene using NheI and SacI restriction enzymes. Then, multi-enhancer elements 1 (ME.1) and 2 (ME.2) were cloned directly upstream of the ApoE promoter using MluI and […] restriction enzymes. To assess ApoE promoter- and ME.1/ME.2-driven transcriptional activation by LXR agonists, 5×10^4 MeWo cells were seeded into a 24-well plate. The following day, 100 ng of pGL3-ME.1/ME.2-ApoE promoter construct and 2 ng of pRL-CMV renilla luciferase construct (E2261, Promega) were co-transfected into cells in the presence of DMSO, GW3965, or T0901317 at 1 μM, each condition in quadruplicate. To assess transcriptional activation by LXRα or LXRβ, 5×10^4 MeWo cells expressing a control shRNA or shRNA targeting LXRα or LXRβ were seeded into a 24-well plate. […] After 24 hours, cells were lysed, and cell lysate was analyzed for firefly and renilla luciferase activity using the Dual Luciferase Assay System (E1960, Promega) and a Bio-Tek Synergy NEO Microplate Reader. Firefly luciferase signal was normalized to renilla luciferase signal and all data are expressed relative to the luciferase activity ratio measured in the DMSO-treated control cells.

[5] = biological target: T1, LXRβ (Homo sapiens, UniProt P55055); details: LiSA, unit inferred; cited from earlier work
T1 sequence (P55055 184-460 limits assumed): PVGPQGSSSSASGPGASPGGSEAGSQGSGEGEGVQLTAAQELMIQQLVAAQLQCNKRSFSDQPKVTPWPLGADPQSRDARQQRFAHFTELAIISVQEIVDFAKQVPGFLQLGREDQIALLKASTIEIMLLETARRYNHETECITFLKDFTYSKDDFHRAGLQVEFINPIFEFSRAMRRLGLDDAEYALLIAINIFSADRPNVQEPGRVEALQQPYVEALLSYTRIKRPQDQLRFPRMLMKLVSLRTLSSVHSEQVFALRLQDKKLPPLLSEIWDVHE
T1 sequence (Q15788 676-700 partner limits assumed): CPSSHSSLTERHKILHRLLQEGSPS

| Structure (SMILES) | systemic dissemination and brain colonization [1] | suppression of growth of SK-Mel-239 vemurafenib-resistant line ([2]; diet 100 mg/kg, NOD Scid gamma mice) | overall survival time, MeWo and SK-Mel-334.2 xenografts ([2]; immunocompromised mice, chow 100 mg/kg after tumor establishment) | tumor growth inhibition, MeWo ([2]; oral in diet) | tumor growth inhibition, SK-Mel-2 ([2]; oral in diet) | tumor growth inhibition, SK-Mel-334.2 ([2]; oral in diet) | growth of in vivo-derived DTIC-resistant MeWo tumors ([2]; oral, diet 100 mg/kg, NOD Scid gamma mice) | blood brain barrier crossing ([3]; in vivo) | amyloid plaque pathology and memory deficits in pre-clinical models of Alzheimer's disease ([3]; oral delivery) | activity of luciferase reporter with ApoE promoter fused to ME.1 or ME.2 [4] | EC50 [5] |
| --- | --- | --- | --- | --- | --- | --- | --- | --- | --- | --- | --- |
| O=C(O)Cc1cccc(OCCCN(Cc2cccc(C(F)(F)F)c2Cl)CC(c2ccccc2)c2ccccc2)c1 [GW3965 2, 3-[3-[N-(2-Chloro-3-trifluoromethylbenzyl)-(2,2-diphenylethyl)amino]propyloxy]phenylacetic acid hydrochloride] | inhibited | 72% | substantially prolonged | 70% | 49% | 73% | strongly inhibited | can efficiently cross the blood brain barrier | improve amyloid plaque pathology and memory deficits | enhance | 30 nM |
| O=S(=O)(c1ccccc1)N(CC(F)(F)F)c1ccc(C(O)(C(F)(F)F)C(F)(F)F)cc1 [T0901317 1] | – | – | – | – | – | – | – | – | – | enhance | – |
